The numbers were not newly measured in PMC4806784 (Investigational new drugs, 2015), which cites them from elsewhere.

Like-named read-outs stand apart in the source and are kept apart here.

For the series the following is noted: 60 mg/m^2 q 3 week, cited from earlier work.
Where [1] appears, read: chemotherapy-naïve elderly patients with advanced non-small cell lung cancer, ref a more recent trial.
Where [2] appears, read: metastatic breast cancer, second line.

Regarding `CC(=O)O[C@@]12CO[C@@H]1C[C@H](O)[C@@]1(C)C(=O)[C@H](O)C3=C(C)[C@@H](OC(=O)[C@H](O)[C@@H](NC(=O)OC(C)(C)C)c4ccccc4)C[C@@](O)([C@@H](OC(=O)c4ccccc4)[C@H]21)C3(C)C` [docetaxel], under setting [1], the “incidence of Grade 3 to 4 neutropenia” value is 89% and the “incidence of febrile neutropenia” value is on record as 15%. Under setting [2], the “incidence of Grade 3 to 4 neutropenia” value is listed as 76% and the “incidence of febrile neutropenia” value is on record as 5%.
